Reference: patent US20240299401A1, “NOVEL REDOX-BASED THERAPEUTIC APPROACH FOR TREATMENT OF CANCER” (THE PENN STATE RESEARCH FOUNDATION, priority 2020, published 2024)
Like-named read-outs stand apart in the source and are kept apart here.

Tests used:
A549 = assay: WST-1 cytotoxicity, A549; type: cell-based, human; details: Homo sapiens, A549, 24 h, read-out: Calculated IC50 values
Procedure: (§1) Two different cytotoxicity/proliferation kit was used in this study i.e., WST-1 proliferation assay kit (Roche, Indianapolis, IN, USA; Cat #28620000) and Cell-titer Glo-luminescent cell viability assay (Promega, WI, USA; Cat #0000348721). Majority of the cell proliferation/cytotoxicity experiments were performed with WST-1 assay. Briefly, cells were seeded at the indicated density for 24 h in 96 well plate, media was replaced, and subsequently treated with the test compounds at different doses. […] Cell titer Glo-assay was additionally performed in certain cases to validate the results from WST-1 assay as outlined above following manufacturer's instructions and luminescence was measured using a FLx100 Luminometer (CLARIOSTAR®, Ortenbery, Germany). […] Other proliferation/cytotoxicity assays were also carried out i.e., Quant™-iT PicoGreen ds DNA assay kit (Thermo Scientific, Rockwood, TN, USA, P7589) following manufacturer's instructions, Trypan blue (Sigma, Ayrshire, UK, T8154) and acid phosphatase assay for validation of cytotoxicity/proliferation data from other assays.

PANC-1 = assay: WST-1 cytotoxicity, PANC-1; type: cell-based; details: Homo sapiens, PANC-1, 24 h, read-out: Calculated IC50 values
Procedure: as §1

[1] = Toxicity in black mice (C57BL/6), 3 weeks; type: in vivo; details: sodium selenite or selenocystine 3 mg/kg, alone or with diphenyl diselenide 50 and 100 mg/kg
Procedure: Black mice (C57BJ/6) mice were treated perorally every second day with either vehicle (canola oil) or diphenyl diselenide at two different dose levels (50 and 100 mg/kg body weight) for 3 weeks. Final body weight and weight of the major organs were measured at necropsy.
Black mice (C57BJ/6) mice were treated with vehicle (PBS i.p. and canola oil p.o.), sodium selenite (3 mg/kg body weight), selenocystine (3 mg/kg body weight), or in combinations with two different doses of diphenyl diselenide (50 and 100 mg/kg body weight) for 3 weeks. Final body weight and weight of the major organs were measured at necropsy.

A375 = assay: WST-1 cytotoxicity, A375; type: cell-based; details: Homo sapiens, A-375, 24 h, read-out: Calculated IC50 values
Procedure: as §1

SNB-19 = assay: WST-1 cytotoxicity, SNB-19; type: cell-based; details: Homo sapiens, SNB-19, 24 h, read-out: Calculated IC50 values
Procedure: as §1

AML193 = assay: WST-1 cytotoxicity, AML193; type: cell-based; details: Homo sapiens, 24 h, read-out: Calculated IC50 values
Procedure: as §1

NB4 = assay: WST-1 cytotoxicity, NB4; type: cell-based, human; details: Homo sapiens
Procedure: as §1

U1906E = assay: WST-1 cytotoxicity, U1906E; type: cell-based; details: Homo sapiens, 24 h, read-out: Calculated IC50 values
Procedure: as §1

HUH7 = assay: WST-1 cytotoxicity, HUH7; type: cell-based; details: Homo sapiens, Huh-7, 24 h, read-out: Calculated IC50 values
Procedure: as §1

IGROV1 = assay: WST-1 cytotoxicity, IGROV1; type: cell-based, human; details: Homo sapiens, IGROV-1, 24 h, read-out: Calculated IC50 values
Procedure: as §1

OV2008 = assay: WST-1 cytotoxicity, OV2008; type: cell-based; details: Homo sapiens, 24 h, read-out: Calculated IC50 values
Procedure: as §1

8-MGBA = assay: WST-1 cytotoxicity, 8-MGBA; type: cell-based; details: Homo sapiens, 8-MG-BA, 24 h, read-out: Calculated IC50 values
Procedure: as §1

U1906L = assay: WST-1 cytotoxicity, U1906L; type: cell-based; details: Homo sapiens, 24 h, read-out: Calculated IC50 values
Procedure: as §1

HL60 = assay: WST-1 cytotoxicity and synergy analysis, HL60; type: cell-based, human; details: Homo sapiens
Procedure: as §1

Hep3B = assay: WST-1 cytotoxicity, Hep3B; type: cell-based; details: Homo sapiens, 24 h, read-out: Calculated IC50 values
Procedure: as §1

HeLa = assay: WST-1 cytotoxicity, HeLa; type: cell-based; details: Homo sapiens, 24 h, read-out: Calculated IC50 values
Procedure: as §1

H661 = assay: WST-1 cytotoxicity, H661; type: cell-based, human; details: Homo sapiens
Procedure: as §1

H1299 = assay: WST-1 cytotoxicity, H1299; type: cell-based, human; details: Homo sapiens
Procedure: as §1

SHSY5-SY = assay: WST-1 cytotoxicity, SHSY5-SY; type: cell-based; details: Homo sapiens, 24 h, read-out: Calculated IC50 values
Procedure: as §1

Kasumi 6 = assay: WST-1 cytotoxicity, Kasumi 6; type: cell-based; details: Homo sapiens, alone, 24 h, read-out: Calculated IC50 values
Procedure: as §1

[2] = tested on: Primary peripheral blood mononuclear cells; assay: WST-1 cytotoxicity, primary PBMCs; details: Homo sapiens, PBMC, 24 h, read-out: Calculated IC50 values
THP-1 = assay: WST-1 cytotoxicity, THP-1; type: cell-based; details: Homo sapiens, THP-1, 24 h, read-out: Calculated IC50 values
Procedure: as §1

HepG2 = assay: WST-1 cytotoxicity, HepG2; type: cell-based; details: Homo sapiens, HepG2, 24 h, read-out: Calculated IC50 values
[3] = tested on: Primary Human hepatocytes; assay: WST-1 cytotoxicity, primary human hepatocytes; details: Hepatocyte, 24 h, read-out: Calculated IC50 values
LS174T = assay: WST-1 cytotoxicity, LS174T; type: cell-based; details: Homo sapiens, 24 h, read-out: Calculated IC50 values
Procedure: as §1

MCF-7 = assay: WST-1 cytotoxicity, MCF-7; type: cell-based, human; details: Homo sapiens
Procedure: as §1

[4] = cited from earlier work
[5] = at 10.2 mg/m2 intravenously, human

O=[Se](O)O [Sodium selenite, sodium selenite]
IC50 (A549): 2.86 µM
IC50 (PANC-1): 7.87 µM
toxic effects (body and organ weight at necropsy) [1]: No demonstrated toxic effects could be observed
IC50 (A375): 6.14 µM
IC50 (SNB-19): 5.35 µM
IC50 (AML193): 6.78 µM
IC50 (NB4; NB-4, 24 h, read-out: Calculated IC50 values): 24.6 µM
IC50 (NB4; NB-4, read-out: Calculated IC50 values of sodium selenite): 24.6 µM
IC50 (U1906E): 2.44 µM
IC50 (HUH7): 3.53 µM
IC50 (IGROV1): 5.08 µM
IC50 (OV2008): 3.7 µM
IC50 (8-MGBA): 4.29 µM
IC50 (U1906L): 1.58 µM
IC50 (HL60; HL-60, 24 h, read-out: Calculated IC50 values): 16 µM
IC50 (HL60; HL-60, read-out: Calculated IC50 values of sodium selenite): 16 µM
IC50 (Hep3B): 1.65 µM
IC50 (HeLa): 0.64 µM
IC50 (H661; NCI-H661, 24 h, read-out: Calculated IC50 values): 53.1 µM
IC50 (H661; NCI-H661, read-out: Calculated IC50 values of sodium selenite): 53.1 µM
IC50 (H1299; NCI-H1299, 24 h, read-out: Calculated IC50 values): 5.25 µM
IC50 (H1299; NCI-H1299, read-out: Calculated IC50 values of sodium selenite): 5.25 µM
IC50 (SHSY5-SY): 40.3 µM
IC50 (Kasumi 6): 25.7 µM
IC50 [2]: 35 µM
IC50 (THP-1): 0.79 µM
IC50 (HepG2): 7.58 µM
IC50 [3]: 202 µM
IC50 (LS174T): 3.6 µM
IC50 (MCF-7; MCF7, 24 h, read-out: Calculated IC50 values): 8.55 µM
IC50 (MCF-7; MCF7, read-out: Calculated IC50 values of sodium selenite): 8.55 µM
dose-limiting toxicity [4, 5]: No dose-limiting toxicity
peak plasma total selenium concentrations [4, 5]: 15.0 to 23.0 µM
plasma concentration (sodium selenite equivalent) that can be reached ([4]; high dose intravenous administration, earlier clinical studies): > 20 µM
Maximum-tolerated dose levels ([4]; intravenously administered, human): 10.2 mg/m2
human tolerance limit ([4]; intravenously for two weeks, phase I trial NCT01959438): 10 mg sodium selenite/m^2 surface area/day
